These are literature values, as cited in patent US20050250746A1, “Premenstrual dysphoric disorder medication” (priority 2004, published 2005).

SMILES strings stand for the structures.

For data set [1], the system named is Severe Premenstrual Syndrome.
In another data set the test system is Premenstrual Syndrome. The following applies: review of published research.
The subject of data set [2] is Severe Premenstrual Syndrome or Premenstrual Dysphoric Disorder. The following applies: continuous or intermittent dosing.

As for `CC(=O)[C@H]1CC[C@H]2[C@@H]3CCC4=CC(=O)CC[C@]4(C)[C@H]3CC[C@]12C` [progesterone], in data set [1] (oral progesterone), the “effectiveness of progesterone therapy versus placebo” value is given as “no better than placebo”. Further, the “difference between progesterone and placebo” value with Premenstrual Syndrome was “no clinically important difference between progesterone and placebo”.

On to `CN[C@H]1CC[C@@H](c2ccc(Cl)c(Cl)c2)c2ccccc21` [seratraline, Sertraline], for which the “improvement versus placebo group” value in data set [2] was “improved significantly more than the placebo group”.

For `Cc1nnc2n1-c1ccc(Cl)cc1C(c1ccccc1)=NC2` [alpazolam, Alprazolam], the “reduction in daily symptom report scores” value in data set [1] (double-blind, versus placebo) was 50%.
